Data: patent US11859248B2, “Nucleic acid modification and identification method” (IMBA—INSTITUT FÜR MOLEKULARE BIOTECHNOLOGIE GMBH, priority 2017, dated 2024)
Like-named read-outs stand apart in the source and are kept apart here.

Key:
Drosophila S2 cells = test: Small RNA sequencing of Drosophila S2 cells after s^4U metabolic labeling; format: cell-based, Drosophila melanogaster
Procedure: Upon generating libraries from size-selected total RNA of Drosophila S2 cells after s^4U metabolic labeling for 24 hours, we observed a strong accumulation of T>C conversions when compared to libraries prepared from unlabeled cells, as exemplified for the miR-184 locus, which gives rise to an abundantly expressed microRNA, miR-184-3p, and its less abundant miR*, miR-184-5p (FIG. 12A). In order to confirm this observation at the genomic scale, we aligned reads to annotated microRNA loci in the Drosophila genome and inspected the frequency of any given mutation normalized to overall T-content per miRNA (FIG. 12B). In the absence of s^4U metabolic labeling, we observed a median mutation rate of less than 0.1% for any given mutation, a rate that is consistent with Illumina-reported sequencing error rates. (Note, that iodoacetamide treatment of unlabeled total RNA had no detectable impact on small RNA abundance and mutation rate, as determined by high-throughput sequencing. See FIG. 19). After 24 h of s^4U metabolic labeling, we observed a statistically significant (p<10^−4, Mann-Whitney test), 74-fold increase in T>C mutation rates, while all other mutations remained below expected sequencing error rates (FIG. 12B).

mES cells = test: Cell viability assay (CellTiter-Glo) of mES cells cultured with s^4U; format: cell-based, mouse; details: for EC50: Mus musculus, read-out: EC50 of compromised cell viability
Procedure: 5000 mES cells were seeded per 96 well the day before the experiment. Medium containing different concentrations of s^4U (as indicated) was added to the cells for 12 h or 24 h. Cell viability was assessed by CellTiter-Glo® Luminescent Cell Viability Assay (Promega) according to the instructions of the manufacturer. Luminescent signal was measured on Synergy using Gen5 Software (v2.09.1).
We tested the ability of mouse embryonic stem cells to tolerate s^4U metabolic RNA-labeling after 12 h or 24 h at varying s^4U concentrations (FIG. 6A). […] Under these conditions, we detected a steady increase in s^4U-incorporation in total RNA preparation 3 h, 6 h, 12 h, and 24 h post labeling, as well as a steady decrease 3 h, 6 h, 12 h, and 24 h after uridine chase (FIG. 6B). As expected, the incorporation follows a single exponential kinetics, with a maximum average incorporation of 1.78% s^4U, corresponding to one s^4U incorporation in every 56 uridines in total RNA (FIG. 6C). These experiments establish s^4U-labeling conditions in mES cells, which can be employed to measure RNA biogenesis and turnover rates under unperturbed conditions.

[1] = test system: reverse transcriptases (Superscript II, Superscript III, Quant-seq RT); test: Reverse transcription of synthetic thiol-nucleotide-containing RNA followed by high-throughput sequencing; format: biochemical; details: after iodoacetamide-treatment
Procedure: Primer extension assays were essentially performed as described previously by Nilsen et al. (Cold Spring Harb Protoc. 2013, 1182-1185). Briefly, template RNA oligonucleotides (5L-let-7-3L or 5L-let-7-s^4Up9-3L; Dharmacon; see Table for sequences) were deprotected according to the instructions of the manufacturer and purified by denaturing polyacrylamide gel-elution. 100 μM purified RNA oligonucleotides were treated with 10 mM iodoacetamide (+IAA) or EtOH (−IAA) in standard reaction conditions (50% DMSO, 50 mM sodiumphosphate buffer, pH 8) for 15 min at 50° C. The reaction was stopped by addition of 20 mM DTT, followed by ethanol precipitation. RT primer (see Table for sequence) was 5′ radiolabeled using γ-^32P-ATP (Perkin-Elmer) and T4-polynucleotide kinase (NEB), followed by denaturing polyacrylamide gel-purification. 640 nM γ-^32P-RT primer was annealed to 400 nM 5L-let-7-3L or 5L-let-7-s^4Up9-3L in 2× annealing buffer (500 mM KCl, 50 mM Tris pH 8.3) in a PCR machine (3 min 95° C., 30 sec 85° C. Ramp 0.5° C./s, 5 min 25° C. Ramp 0.1° C./s). Reverse transcription was performed using Superscript II (Invitrogen), Superscript III (Invitrogen), or Quant-seq RT (Lexogen) as recommended by the manufacturer. For dideoxynucleotide reactions, a final concentration of 500 μM ddNTP (as indicated) was added to RT reactions. Upon completion, RT reactions were resuspended in formamide loading buffer (Gel loading buffer II, Thermo Fisher Scientific) and subjected to 12.5% denaturing polyacrylamide gel electrophoresis. Gels were dried, exposed to storage phosphor screen (PerkinElmer), imaged on a Typhoon TRIO variable mode imager (Amersham Biosciences), and quantified using ImageQuant TL v7.0 (GE Healthcare). […]
For sequencing analysis of synthetic RNA samples (FIG. 5) barcoded libraries were demultiplexed using Picard Tools BamIndexDecoder v1.13 allowing 0 mismatches in the barcode. […] Remaining aligned reads were converted to pileup format. […] Output table was analyzed and plotted in Excel v15.22 (Microsoft) and Prism v7.0a (GraphPad). […]

O=c1[nH]c(=S)ccn1[C@@H]1O[C@H](CO)[C@@H](O)[C@H]1O [s^4U, 4-thiouridine]
median s^4U-incorporation in miRNAs (Drosophila S2 cells; 500 μM s^4U, 24 h labeling): 2.22%
increase in T>C mutation rates (Drosophila S2 cells; 24 h labeling vs unlabeled): 74 fold
effect on cell viability (mES cells; 100 μM s^4U): did not severely affect cell viability
EC50 (mES cells; 12 h labeling): 3100 µM
EC50 (mES cells; 24 h labeling): 380 µM
increase in T to C conversion [1]: 8.5 fold
mutation rate (T to C) ([1]; all tested RTs): more than 0.94
